In ChEMBL document CHEMBL2029253, “Pharmacophore modeling, virtual screening and 3D-QSAR studies of 5-tetrahydroquinolinylidine aminoguanidine derivatives as sodium hydrogen exchanger inhibitors” (Bioorg Med Chem Lett, 2012):

Assay: Inhibition of sodium hydrogen exchanger-mediated platelet swelling in human
Conditions: for IC50: Homo sapiens

SMILES | IC50 (read-out: IC50) [nM] | IC50 (read-out: pIC50 (converted)) [nM] | Ki [nM]
COc1ccnc2c1/C(=N/N=C(N)N)CC(c1ccccc1Cl)C2 (configuration not stated) | < 50 | 50 | 
N=C(N)N/N=c1\cc(-c2ccccc2)oc2ccccc12 | 6400 | 6400 | 
Cc1ccnc2c1/C(=N/N=C(N)N)CC(c1cc(Cl)ccc1Cl)C2 (configuration not stated) |  | 57.9 | 
Cc1ccnc2c1/C(=N/N=C(N)N)CC(c1ccccc1F)C2 (configuration not stated) | 32 | 32 | 
Cc1coc2c1/C(=N/N=C(N)N)CC(c1ccccc1Cl)C2 (configuration not stated) |  | 82 | 
Cc1[nH]nc2c1/C(=N/N=C(N)N)CC(c1ccccc1Cl)C2 (configuration not stated) |  | 55 | 
N=C(N)N/N=C1\CC(c2ccccc2)Cc2ncccc21 (configuration not stated) | 410 | 410 | 
Cc1ccnc2c1/C(=N/N=C(N)N)CC(c1cc(F)ccc1F)C2 (configuration not stated) |  | 39 | 
COc1ccc(F)cc1C1C/C(=N\N=C(N)N)c2c(C)ccnc2C1 (configuration not stated) |  | 32 | 
Cc1ccnc2c1/C(=N/N=C(N)N)CC(c1ccccc1Cl)C2 (configuration not stated) | < 50 | 40 | 
Cc1ccnc2c1/C(=N/N=C(N)N)CC(c1ccccc1)C2 (configuration not stated) | < 50 | 91 | 
Cc1ccnc2c1/C(=N/N=C(N)N)CC(c1cc(F)ccc1Cl)C2 (configuration not stated) |  | 19 | 19
Cc1ncnc2c1/C(=N/N=C(N)N)CC(c1ccccc1Cl)C2 (configuration not stated) |  | 240 | 
Cc1ccnc2c1/C(=N/N=C(N)N)CC(c1ccc(Cl)cc1Cl)C2 (configuration not stated) |  | 340 | 
Cc1cc(C)c2c(n1)CC(c1ccccc1)C/C2=N\N=C(N)N (configuration not stated) | < 50 | 180 | 
Cc1ccnc2c1/C(=N/N=C(N)N)CC(c1sc(Cl)cc1Cl)C2 (configuration not stated) |  | 49 | 
Cc1ccccc1C1C/C(=N\N=C(N)N)c2c(C)ccnc2C1 (configuration not stated) | 57 | 57 | 
Cc1csc2c1/C(=N/N=C(N)N)CC(c1ccccc1Cl)C2 (configuration not stated) |  | 220 | 
Cc1ccnc2c1/C(=N/N=C(N)N)CC(c1sccc1Cl)C2 (configuration not stated) |  | 19 | 

SMILES | IC50 (read-out: IC50) [nM] | IC50 (read-out: pIC50 (converted)) [nM] | Ki [nM]
Cc1ccnc2c1/C(=N/N=C(N)N)CC(c1cccs1)C2 (configuration not stated) |  | 47 | 
Cc1ccc2c(n1)CC(c1ccccc1)C/C2=N\N=C(N)N (configuration not stated) | 2800 | 2800 | 
Cc1cnnc2c1/C(=N/N=C(N)N)CC(c1ccccc1Cl)C2 (configuration not stated) |  | 26 | 
Cc1ccccc1C1C/C(=N\N=C(N)N)c2c(C)c[nH]c2C1 (configuration not stated) |  | 34 | 
N=C(N)N/N=C1\CC(c2ccccc2)Cc2[nH]ccc21 (configuration not stated) |  | 3500 | 
Cc1ccnc2c1/C(=N/N=C(N)N)CC(c1cccc(Cl)c1)C2 (configuration not stated) | < 50 | 61 | 
Cc1ccnc2c1/C(=N/N=C(N)N)CC(c1ccsc1Cl)C2 (configuration not stated) |  | 22 | 
Cc1ccnc2c1/C(=N/N=C(N)N)CC(c1ccco1)C2 (configuration not stated) |  | 110 | 
Cc1ccnc2c1/C(=N/N=C(N)N)CC(c1ccsc1)C2 (configuration not stated) |  | 30 | 
N=C(N)N/N=C1\CC(c2ccccc2)Oc2ccccc21 (configuration not stated) | ≤ 6400 | 3300 | 
Cc1ccnc2c1/C(=N/N=C(N)N)CC(c1ccccc1Br)C2 (configuration not stated) | 56 | 56 | 
Cc1cccc2c1/C(=N/N=C(N)N)CC(c1ccccc1Cl)O2 (configuration not stated) |  | 200 | 
Cc1ccnc2c1/C(=N/N=C(N)N)CC(c1ccc(Cl)cc1)C2 (configuration not stated) | < 50 | 550 | 
Cc1ccnc2c1/C(=N/N=C(N)N)CC(c1cccc(Cl)c1Cl)C2 (configuration not stated) |  | 88.9 | 
COc1ccccc1C1C/C(=N\N=C(N)N)c2c(C)ccnc2C1 (configuration not stated) | 100 | 100 | 
Cc1ccc(F)cc1C1C/C(=N\N=C(N)N)c2c(C)ccnc2C1 (configuration not stated) |  | 37 | 
Cc1ccnc2c1/C(=N/N=C(N)N)CC(c1cc(Cl)sc1Cl)C2 (configuration not stated) |  | 19 | 
Cc1ccnc2oc(-c3ccccc3Cl)c/c(=N\NC(=N)N)c12 |  | 360 | 
